Reference: ChEMBL document CHEMBL1201862, “PubChem BioAssay data set” (2004)
Blank lines part the entries; values can stand above or below the compound they belong to. Activity calls are given as the source filed them.

What was measured:
[1] = insulin promoter down-regulators in MIN6 cells, imaging, high-content screening, mouse beta cells (AID 1628); type: functional
[2] = cytotoxicity in MIN6 insulinoma cells, dose response, cytotoxicity control, cell-based, mouse insulinoma (AID 2122); type: functional;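 note: confirmatory high-throughput counterscreen run to flag cytotoxic compounds; mouse MIN-6 beta cells carrying an insulin promoter eGFP reporter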
[3] = biological target: T1, Endoribonuclease toxin MazF (Escherichia coli K-12, UniProt P0AE70); experiment: MazF toxin RNase activators, dose response, biochemical, fluorescence, single-stranded RNA substrate, uHTS hits (AID 588481); type: functional
[4] = biological target: T1, Endoribonuclease toxin MazF; experiment: fluorescent RNA oligo signal without MazF, dose response, counter-screen for MazEF activator project, biochemical, fluorescence, single-stranded RNase substrate (AID 588502); type: functional
[5] = biological target: Tyrosine-protein phosphatase non-receptor type 7 (Homo sapiens, UniProt P35236); type: functional
[6] = biological target: Glyceraldehyde-3-phosphate dehydrogenase (Homo sapiens, UniProt P04406)
[7] = biological target: T2, Dual specificity protein phosphatase 6 (Rattus norvegicus, UniProt Q64346)
T2 sequence (Q64346 whole entry): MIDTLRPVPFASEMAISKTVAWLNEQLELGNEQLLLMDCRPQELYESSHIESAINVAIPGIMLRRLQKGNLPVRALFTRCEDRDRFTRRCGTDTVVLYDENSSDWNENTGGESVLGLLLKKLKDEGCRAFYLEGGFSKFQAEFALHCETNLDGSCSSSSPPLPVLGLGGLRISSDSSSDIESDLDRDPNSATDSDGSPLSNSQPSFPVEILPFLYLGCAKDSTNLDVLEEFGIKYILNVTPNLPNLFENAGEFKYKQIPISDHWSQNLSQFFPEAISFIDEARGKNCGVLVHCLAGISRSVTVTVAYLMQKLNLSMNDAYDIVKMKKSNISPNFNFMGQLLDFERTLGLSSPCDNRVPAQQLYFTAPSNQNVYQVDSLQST

[8] = biological target: T2, Dual specificity protein phosphatase 6; type: functional
Jurkat [9] = experiment: antigen receptor-induced NF-kB inhibitors, dose response, Jurkat, luciferase reporter, luminescence, B- and T-cell (AID 489004); type: functional, cell-based; conditions: Homo sapiens;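 note: NF-kB luciferase reporter Jurkat cells stimulated with PMA plus ionomycin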
[10] = cytotoxicity in HEK-293T NF-kB-Luc cells, dose response, cytotoxicity control for B/T-cell NF-kB inhibitor project, cell-based, uHTS hits (AID 489019); type: functional;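 note: IC50 reflects cytotoxicity as loss of cell viability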
INS1 = experiment: beta cell apoptosis inhibitors, cytokine rescue, dose response, luminescence, retest (AID 449756); type: functional, cell-based; conditions: Rattus norvegicus;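 note: cell death triggered by IL-1 beta plus TNF-alpha plus IFN-gamma mixture; protective hits raise ATP signal compared with cytokine alone wells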
[11] = Luminescence Cell-Based Dose Response Follow up to Identify Inhibitors of Platelet Dense Granule Release. [Related pubchem assays (depositor defined):AID1663, AID1678, AID2398]; type: functional
HEK293 [12] = experiment: cytotoxicity in HEK293T NF-kB-Luc cells, SAR follow-up, cytotoxicity control for NF-kB activator project, cell-based, resazurin fluorescence (AID 493251); type: functional; conditions: Homo sapiens
Jurkat [13] = experiment: SAR Analysis of small molecule inhibitors of T-cell specific antigen receptor-induced NF-kB activation in a Jurkat cell line using a luminescence assay. [Related pubchem assays (depositor defined):AID435003, AID435012, AID465]; type: functional, cell-based; conditions: Homo sapiens
HEK293 [14] = experiment: SAR Analysis of small molecule inhibitors of T-cell specific antigen receptor-induced NF-kB activation in a HEK-293T cell line using a luminescence assay. [Related pubchem assays (depositor defined):AID435003, AID435012, AID489026]; type: functional, cell-based; conditions: Homo sapiens
Candida albicans = experiment: reversal of fluconazole resistance in C. albicans, dose response, CaCi-2 strain, Alamar Blue, dry powder, set 3 (AID 488907); type: functional, organism-based
[15] = biological target: Delta-type opioid receptor (Homo sapiens, UniProt P41143); experiment: Counterscreen for agonists of heterodimerization of the mu 1 (OPRM1) and delta 1 (OPRD1) opioid receptors: Luminescence-based cell-based high throughput dose response assay to identify agonists of OPRD1 homodimerization. [Related pubchem assays (depositor defined):AID504326, AID504355, AID504692, AID504904, AID504905]; type: functional
Mu-type opioid receptor = Mu-type opioid receptor (Homo sapiens, UniProt P35372); experiment: Counterscreen for agonists of heterodimerization of the mu 1 (OPRM1) and delta 1 (OPRD1) opioid receptors: Luminescence-based cell-based high throughput dose response assay to identify agonists of OPRM1 homodimerization.; type: functional;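 note: U2OS cells expressing OPRM1 and beta-arrestin as split beta-galactosidase partners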
[16] = biological target: 5-hydroxytryptamine receptor 5A (Homo sapiens, UniProt P47898); experiment: Counterscreen for agonists of OPRM1-OPRD1 heterodimerization: luminescence-based cell-based high throughput dose response assay to identify agonists of 5-hydroxytryptamine (serotonin) 5A receptor (HTR5A). [Related pubchem assays (depositor defined):AID504326, AID504355, AID504692, AID504904, AID504905]; type: functional
Chain of 5-hydroxytryptamine receptor 5A (P47898 whole entry): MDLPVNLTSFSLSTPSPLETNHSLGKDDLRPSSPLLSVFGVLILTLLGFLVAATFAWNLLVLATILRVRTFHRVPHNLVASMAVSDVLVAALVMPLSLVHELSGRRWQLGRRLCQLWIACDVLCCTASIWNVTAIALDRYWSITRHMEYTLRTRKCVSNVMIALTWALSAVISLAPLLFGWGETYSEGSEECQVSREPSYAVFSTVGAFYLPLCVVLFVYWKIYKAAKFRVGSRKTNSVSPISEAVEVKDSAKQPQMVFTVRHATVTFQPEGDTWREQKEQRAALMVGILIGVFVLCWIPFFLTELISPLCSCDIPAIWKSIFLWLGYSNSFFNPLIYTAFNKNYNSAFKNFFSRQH

T1 sequence (P0AE70 whole entry): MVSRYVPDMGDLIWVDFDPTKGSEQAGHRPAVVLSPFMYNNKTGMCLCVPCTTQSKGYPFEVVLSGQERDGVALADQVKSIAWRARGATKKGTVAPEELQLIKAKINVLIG
Chain of Tyrosine-protein phosphatase non-receptor type 7 (P35236 whole entry): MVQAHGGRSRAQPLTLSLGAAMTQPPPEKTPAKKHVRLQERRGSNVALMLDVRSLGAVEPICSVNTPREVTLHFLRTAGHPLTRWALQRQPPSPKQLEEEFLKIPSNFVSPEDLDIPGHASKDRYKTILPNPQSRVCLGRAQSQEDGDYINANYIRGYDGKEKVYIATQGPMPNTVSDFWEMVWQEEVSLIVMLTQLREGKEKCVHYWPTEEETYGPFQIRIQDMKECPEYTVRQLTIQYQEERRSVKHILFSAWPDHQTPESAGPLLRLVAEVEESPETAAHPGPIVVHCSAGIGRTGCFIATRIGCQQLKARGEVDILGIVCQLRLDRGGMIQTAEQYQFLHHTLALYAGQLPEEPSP
Chain of Delta-type opioid receptor (P41143 whole entry): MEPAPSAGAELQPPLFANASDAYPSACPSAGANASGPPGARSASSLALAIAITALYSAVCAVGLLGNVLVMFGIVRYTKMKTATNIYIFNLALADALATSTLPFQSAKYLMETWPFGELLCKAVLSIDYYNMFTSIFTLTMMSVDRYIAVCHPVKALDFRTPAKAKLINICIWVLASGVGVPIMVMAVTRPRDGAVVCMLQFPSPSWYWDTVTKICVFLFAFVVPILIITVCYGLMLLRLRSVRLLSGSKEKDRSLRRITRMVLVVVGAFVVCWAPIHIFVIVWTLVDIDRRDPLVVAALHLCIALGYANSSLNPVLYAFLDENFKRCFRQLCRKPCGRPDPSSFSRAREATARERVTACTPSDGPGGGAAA
Chain of Mu-type opioid receptor (P35372 whole entry): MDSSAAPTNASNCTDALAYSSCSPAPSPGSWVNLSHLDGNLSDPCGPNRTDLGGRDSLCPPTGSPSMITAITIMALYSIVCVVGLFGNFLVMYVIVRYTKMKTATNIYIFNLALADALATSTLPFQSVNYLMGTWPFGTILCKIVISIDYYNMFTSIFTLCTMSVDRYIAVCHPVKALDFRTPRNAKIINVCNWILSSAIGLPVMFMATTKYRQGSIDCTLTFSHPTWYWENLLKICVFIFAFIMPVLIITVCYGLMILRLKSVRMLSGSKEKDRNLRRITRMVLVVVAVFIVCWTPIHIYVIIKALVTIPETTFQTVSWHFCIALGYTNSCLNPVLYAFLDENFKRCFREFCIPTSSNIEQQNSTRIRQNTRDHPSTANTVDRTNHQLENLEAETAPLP
Chain of Glyceraldehyde-3-phosphate dehydrogenase (P04406 whole entry): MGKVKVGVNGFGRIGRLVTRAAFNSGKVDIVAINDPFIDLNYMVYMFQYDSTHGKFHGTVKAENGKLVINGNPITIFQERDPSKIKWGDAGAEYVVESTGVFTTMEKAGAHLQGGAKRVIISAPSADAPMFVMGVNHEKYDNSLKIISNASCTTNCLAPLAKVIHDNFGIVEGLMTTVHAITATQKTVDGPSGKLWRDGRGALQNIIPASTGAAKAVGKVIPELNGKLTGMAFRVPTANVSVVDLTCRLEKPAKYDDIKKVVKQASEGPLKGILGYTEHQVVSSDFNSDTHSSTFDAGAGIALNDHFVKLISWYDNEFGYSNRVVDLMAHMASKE

Compound: COc1ccc(OCC(O)Cn2c(=N)n(CCN3CCCCC3)c3ccccc32)cc1 (centres undefined)
IC50 [1]: 2.41 µM (active)
IC50 [2]: 4.23 µM (active)

Compound: CCOC(=O)c1c(N=C(S)Nc2ccc(Cl)cc2)sc2c1CCN(C)C2
EC50 [3]: > 99 µM (inactive)
EC50 [4]: > 99 µM (inactive)

IC50 [5]: > 100 µM (not active)
IC50 [6]: > 100 µM (not active)
IC50 [7]: > 100 µM (inactive)
IC50 [8]: > 100 µM (inactive)
Compound: NC(=O)[C@H](Cc1ccccc1)n1c(=O)n(Cc2ccc(Br)cc2)c(=O)n(-c2ccccc2)c1=O

Compound: Cc1ccc(NC(=O)COc2ccc(N(C)C(=O)C(C)(C)C)cc2)cc1S(=O)(=O)N1CCCCC1
IC50 (Jurkat [9]): 8.2 µM (active)
IC50 [10]: > 80 µM (inactive)
AC50 (INS1): 5.61 µM (active)

Compound: CC(=O)N/N=C(\C)c1ccc(NC(=O)C2CC2)cc1
EC50 [11]: 500 µM (inactive)

Compound: COc1cccc(C(=O)Nc2ccc3[nH]c(-c4cccc(OC)c4)cc(=O)c3c2)c1
IC50 (HEK293 [12]): 42.2 µM (inactive)
IC50 (Jurkat [13]): > 79 µM (inactive)
IC50 (HEK293 [14]): > 79 µM (inactive)

Compound: CC(C)C(=O)N1CCN(c2ccccn2)CC1
AC50 (Candida albicans): 0.961 µM (active)

EC50 [15]: > 92.5 µM (inactive)
EC50 (Mu-type opioid receptor): 42.8 µM (inactive)
EC50 [16]: > 92.5 µM (inactive)
Compound: Cc1ccc(CSCC(=O)N/N=C/c2sccc2C)cc1
